Reference: US8383690B2, “Pharmaceutical composition useful for the treatment of peptic ulcer diseases” (Council of Scientific and Industrial Research, priority 2006, dated 2013)
≈ marks a conversion by molar mass, not a printed value. Read-outs that look alike come from different tables or passages of the source.

Key:
[1] = tested on: H. pylori; assay: MIC/MBC by microbroth dilution assay against H. pylori; type: cell-based, Helicobacter pylori
[2] = tested on: H. pylori; assay: Disc diffusion sensitivity assay against H. pylori; type: cell-based, Helicobacter pylori; conditions: for zone of inhibition at 100 µg/disc / zone of inhibition at 200 µg/disc: Helicobacter pylori, read-out: Inhibition Zone Diameter; for zone of inhibition at 100 µg/disc: 100 μg/disc; for zone of inhibition at 200 µg/disc: 200 μg/disc
[3] = molecular target: T1, gastric H+,K+-ATPase (Sus scrofa, UniProt P19156); assay: Anti gastric proton pump activity: H+,K+-ATPase inhibition in pig gastric membranes; type: biochemical
T1 construct: Pig gastric membranes enriched in apical and tubulovesicular membranes were prepared according to [59]; from tissue; host or cells: pig gastric mucosa membranes (apical and tubulovesicular)
T1 sequence (P19156 whole entry): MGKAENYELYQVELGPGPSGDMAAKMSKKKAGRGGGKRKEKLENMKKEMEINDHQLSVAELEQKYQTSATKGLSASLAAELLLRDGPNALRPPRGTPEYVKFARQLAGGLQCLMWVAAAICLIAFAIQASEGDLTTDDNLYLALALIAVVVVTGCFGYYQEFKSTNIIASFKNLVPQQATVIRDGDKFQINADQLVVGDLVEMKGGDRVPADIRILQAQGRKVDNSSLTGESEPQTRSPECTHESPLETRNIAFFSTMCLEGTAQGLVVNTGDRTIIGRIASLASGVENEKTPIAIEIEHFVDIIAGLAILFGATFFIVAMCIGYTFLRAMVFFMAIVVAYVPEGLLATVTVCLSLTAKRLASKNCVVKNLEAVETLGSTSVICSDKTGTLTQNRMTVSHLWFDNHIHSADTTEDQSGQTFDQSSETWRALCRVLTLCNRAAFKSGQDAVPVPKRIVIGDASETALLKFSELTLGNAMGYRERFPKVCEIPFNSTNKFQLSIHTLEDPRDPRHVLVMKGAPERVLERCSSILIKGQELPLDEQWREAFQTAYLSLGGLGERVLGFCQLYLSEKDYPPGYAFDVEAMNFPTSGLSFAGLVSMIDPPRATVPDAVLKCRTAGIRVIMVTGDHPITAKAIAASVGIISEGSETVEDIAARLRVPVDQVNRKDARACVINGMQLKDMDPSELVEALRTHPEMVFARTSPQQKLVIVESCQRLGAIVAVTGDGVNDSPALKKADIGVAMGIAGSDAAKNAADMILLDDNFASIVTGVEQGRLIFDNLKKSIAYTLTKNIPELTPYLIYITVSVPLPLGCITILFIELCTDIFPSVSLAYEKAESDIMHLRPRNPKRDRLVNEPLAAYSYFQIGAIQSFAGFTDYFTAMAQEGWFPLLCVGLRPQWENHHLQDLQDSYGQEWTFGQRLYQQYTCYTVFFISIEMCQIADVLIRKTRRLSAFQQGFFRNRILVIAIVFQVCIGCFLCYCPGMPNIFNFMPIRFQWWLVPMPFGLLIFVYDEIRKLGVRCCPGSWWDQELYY
T1 sequence (P18434 whole entry partner): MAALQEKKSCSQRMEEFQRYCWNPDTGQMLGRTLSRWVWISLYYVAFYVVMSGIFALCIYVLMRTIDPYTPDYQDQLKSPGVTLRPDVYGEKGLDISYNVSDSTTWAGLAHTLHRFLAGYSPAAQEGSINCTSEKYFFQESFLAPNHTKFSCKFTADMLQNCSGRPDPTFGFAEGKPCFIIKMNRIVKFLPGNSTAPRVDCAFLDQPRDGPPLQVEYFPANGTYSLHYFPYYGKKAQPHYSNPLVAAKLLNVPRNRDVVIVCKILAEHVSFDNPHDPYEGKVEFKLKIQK
Description: Pig gastric membranes enriched in apical and tubulovesicular membranes were prepared according to [59].
The H^+,K^+-ATPase activity was measured at 37° C. in a 1-mL reaction mixture containing 2 mM MgCl2, 2 mM ATP, 10 mM PIPES (pH 6.8), 10 mM KCl and 10-12 μg membrane protein. An otherwise complete assay mixture was preincubated for 10 min in presence and absence of different concentrations of oenothein C or omeprazole before initiating the reaction with ATP. After incubation for 10 min, the reaction was terminated by the addition of 1 mL ice-chilled TCA (14%).
K^+-stimulated activity, referred to as H^+,K^+-ATPase, was calculated as the difference between the activity in presence of Mg plus K^+ and the basal activity (Mg^+-ATPase) in presence of Mg^+ alone. […] Following enzymatic assay method, the inhibitory activity of oenothein C was assessed. The effects are quantitated in terms of percent inhibition of H^+,K^+-ATPase, and compared with that of omeprazole, a specific inhibitor of gastric H^+,K^+-ATPase.

[4] = tested on: Swiss albino mice; assay: Toxicity evaluation (mortality) in Swiss albino mice; type: in vivo
Description: The compound oenothein C was checked for mortality of the Swiss albino mice.
Maximum dosage of 250 mg/Kg body weight of compound oenothein C was given to 5 swiss albino mice via oral route.

[5] = Solubility in solvents; type: physicochemical; conditions: methanol, acetone, DMSO
Description: The molecule oenothein C has been isolated from the flowers of the plant Woodfordia fruticosa, abundantly available in the Indian subcontinent. Dried flowers of Woodfordia fruticosa were extracted by soaking overnight with 1:1 methanol-water at room temperature. The process was repeated thrice. The combined extract was evaporated at 45° C. in a rotary evaporator to get the crude extract. This was partitioned between n-butanol and water. The layers were separately evaporated at 45° C. to obtain two fractions. The n-butanol soluble fraction was chromatographed repeatedly over diaion HP-20 and sephadex LH-20 columns following bioassay guided fractionation technique to obtain pure oenothein C as an off-white solid, amorphous in nature.

[6] = tested on: K. pneumoniae; assay: Antibacterial microbroth dilution assay in Muller Hinton broth (NCCLS); type: cell-based; conditions: Klebsiella pneumoniae, gram negative
Description: (§1) Further, the antibacterial activity of oenothein C was examined against four aerobic bacteria (1 gram positive, B. cereus and 3 gram negative, S. typhi, E. coli & K. pneumoniae) by microbroth dilution assay in Muller Hinton broth essentially by following NCCLS (National Commmittee for Clinical Laboratory Standards) guideline.

[7] = tested on: E. coli; assay: as above; type: cell-based; conditions: Escherichia coli, gram negative
Description: as §1

[8] = tested on: S. typhi; assay: as above; type: cell-based; conditions: Salmonella enterica
Description: as §1

[9] = tested on: B. cereus; assay: as above; type: cell-based; conditions: Bacillus cereus, gram positive
Description: as §1

[10] = Helicobacter pylori, ATCC43504, strain ATCC 43504
[11] = Helicobacter pylori, ATCC43504, strain ATCC 43504, read-out: MIC
[12] = Helicobacter pylori, ATCC43629, strain ATCC 43629
[13] = Helicobacter pylori, ATCC43629, strain ATCC 43629, read-out: MIC
[14] = Helicobacter pylori, ATCC49503, strain ATCC 49503
[15] = Helicobacter pylori, ATCC49503, strain ATCC 49503, read-out: MIC
[16] = Helicobacter pylori, NCTC26695, strain NCTC 26695
[17] = Helicobacter pylori, NCTC26695, strain NCTC 26695, read-out: MIC
[18] = Helicobacter pylori, strain 80A
[19] = Helicobacter pylori, strain 80A, read-out: MIC

CC1(C)S[C@@H]2[C@H](NC(=O)[C@H](N)c3ccc(O)cc3)C(=O)N2[C@H]1C(=O)O [Amoxycillin, amoxycillin]
MBC [1, 10]: 0.05 µg/mL (≈ 0.137 µM)
MIC [1, 11]: 0.025 µg/mL (≈ 0.0684 µM)
MBC [1, 12]: 0.05 µg/mL (≈ 0.137 µM)
MIC [1, 13]: 0.025 µg/mL (≈ 0.0684 µM)
MBC [1, 14]: 0.05 µg/mL (≈ 0.137 µM)
MIC [1, 15]: 0.0125 µg/mL (≈ 0.0342 µM)
MBC [1, 16]: < 1 µg/mL
MIC [1, 17]: 0.1 µg/mL (≈ 0.274 µM)
MBC [1, 18]: 0.08 µg/mL (≈ 0.219 µM)
MIC [1, 19]: 0.02 µg/mL (≈ 0.0547 µM)
MIC ([1]; strain 80A): 0.02 µg/mL (≈ 0.0547 µM)
MIC ([1]; strain ATCC 43504): 0.025 µg/mL (≈ 0.0684 µM)
MIC ([1]; strain ATCC 43629): 0.025 µg/mL (≈ 0.0684 µM)
MIC ([1]; strain ATCC 49503): 0.013 µg/mL (≈ 0.0356 µM)
MIC ([1]; strain NCTC 26695): 0.1 µg/mL (≈ 0.274 µM)

CC[C@H]1OC(=O)[C@H](C)[C@@H](O[C@H]2C[C@@](C)(OC)[C@@H](O)[C@H](C)O2)[C@H](C)[C@@H](O[C@@H]2O[C@H](C)C[C@H](N(C)C)[C@H]2O)[C@](C)(OC)C[C@@H](C)C(=O)[C@H](C)[C@@H](O)[C@]1(C)O [Clarithromycin, clarithromycin]
MBC [1, 10]: 0.05 µg/mL (≈ 0.0668 µM)
MIC [1, 11]: 0.025 µg/mL (≈ 0.0334 µM)
MBC [1, 12]: 0.1 µg/mL (≈ 0.134 µM)
MIC [1, 13]: 0.05 µg/mL (≈ 0.0668 µM)
MBC [1, 14]: 0.013 µg/mL (≈ 0.0174 µM)
MIC [1, 15]: 0.00625 µg/mL (≈ 0.00836 µM)
MBC [1, 16]: 0.1 µg/mL (≈ 0.134 µM)
MIC [1, 17]: 0.0625 µg/mL (≈ 0.0836 µM)
MBC [1, 18]: 0.04 µg/mL (≈ 0.0535 µM)
MIC [1, 19]: 0.02 µg/mL (≈ 0.0267 µM)
MIC ([1]; strain 80A): 0.02 µg/mL (≈ 0.0267 µM)
MIC ([1]; strain ATCC 43504): 0.025 µg/mL (≈ 0.0334 µM)
MIC ([1]; strain ATCC 43629): 0.050 µg/mL (≈ 0.0668 µM)
MIC ([1]; strain ATCC 49503): 0.006 µg/mL (≈ 0.00802 µM)
MIC ([1]; strain NCTC 26695): 0.063 µg/mL (≈ 0.0842 µM)
Inhibition Zone Diameter ([2]; strain 80A, 10 ng/disc): 1.8 (10) cm
Inhibition Zone Diameter ([2]; strain 121A, 10 ng/disc): 1.8 (10) cm
Inhibition Zone Diameter ([2]; strain ATCC 43504, 40 ng/disc): 2.0 (40) cm
Inhibition Zone Diameter ([2]; strain ATCC 43629, 100 ng/disc): 1.7 (100) cm
Inhibition Zone Diameter ([2]; strain ATCC 49503, 5 ng/disc): 1.7 (5) cm
Inhibition Zone Diameter ([2]; strain NCTC 26695, 400 ng/disc): 2.0 (400) cm

COc1ccc2[nH]c([S+]([O-])Cc3ncc(C)c(OC)c3C)nc2c1 (centres unmarked) [Omeprazole, omeprazole]
% Inhibition of H+,K+-ATPase ([3]; 3 μM): 10-30%
inhibition at 3 µM ([3]; 3 μM): ~20%
inhibition at 15 µM ([3]; 15 μM): 40 to 60%
inhibition at 30 µM ([3]; 30 μM): 80 to 90%
degree of inhibition of the gastric proton pump ([3]; over 3-30 μM): 10-90%

COC(=O)c1cc(O)c(O)c(O)c1 [methyl gallate]
activity in the MIC/MBC anti-H. pylori test [1]: did not show any activity
activity in the anti-proton pump test [3]: did not show any activity
activity in the disc diffusion anti-H. pylori test [2]: did not show any activity

O=C(O[C@H]1[C@H](O)[C@@H](CO)OC(O)[C@@H]1OC(=O)c1cc(O)c(O)c(O)c1Oc1cc2c(=O)oc3c(O)c(O)cc4c(=O)oc(c1O)c2c34)c1cc(O)c(O)c(O)c1 (mixture of isomers) [Oenothein C, D-Glucose 2-[2-[(5,10-dihydro-3,7,8-trihydroxy-5,10-dioxo[1]benzopyrano[5,4,3-cde][1]benzopyran-2-yl)oxy]-3,4,5-trihydroxy benzoate]-3-(3,4,5-trihydroxybenzoate)]
fold less competent in respect of metronidazole MIC values ([1]; 5 strains): 2-20 fold
MBC [1, 10]: > 50 µg/mL
MIC [1, 11]: 25 µg/mL
MBC [1, 12]: > 50 µg/mL
MIC [1, 13]: 25 µg/mL
MBC [1, 14]: 50 µg/mL
MIC [1, 15]: 6.25 µg/mL
MBC [1, 16]: 25 µg/mL
MIC [1, 17]: 12.5 µg/mL
MBC [1, 18]: 50 µg/mL
MIC [1, 19]: 25 µg/mL
minimum inhibitory concentration (MIC), range over strains ([1]; clinical and standard strains of H. pylori): 6.25 to 25.0 µg/mL
fold less potent as compared with clarithromycin and amoxycillin, based on MIC values ([1]; different strains): 500-1000 fold
inhibition at 0.13 µM ([3]; 0.13 μM): 20 to 30%
inhibition at 0.64 µM ([3]; 0.64 μM): 50 to 70%
inhibition at 1.3 µM ([3]; 1.30 μM): 70 to 90%
IC50 ([3]; concentration range 0.13 to 1.3 μM, read-out: IC50 of gastric proton pump activity in vitro): 600 to 800 nM
degree of inhibition of the gastric proton pump ([3]; over 0.13-1.30 μM): 20-90%
degree of inhibition of gastric proton pump higher as compared with omeprazole ([3]; versus omeprazole, identical conditions): about 20 fold
inhibition zone diameter, range over strains ([2]; 100-200 μg/disc, 6 different strains of H. pylori): 1.7-2.5 cm
zone of inhibition at 100 µg/disc ([2]; strain 80A): 20 mm
zone of inhibition at 200 µg/disc ([2]; strain 80A): 25 mm
zone of inhibition at 100 µg/disc ([2]; strain 121A): 17 mm
zone of inhibition at 200 µg/disc ([2]; strain 121A): 20 mm
Inhibition Zone Diameter ([2]; strain ATCC 43504, 100 μg/disc): 2.0 cm
Inhibition Zone Diameter ([2]; strain ATCC 43504, 200 μg/disc): 2.7 cm
Inhibition Zone Diameter ([2]; strain ATCC 43629, 100 μg/disc): 1.9 cm
Inhibition Zone Diameter ([2]; strain ATCC 43629, 200 μg/disc): 2.3 cm
Inhibition Zone Diameter ([2]; strain ATCC 49503, 100 μg/disc): 1.7 cm
Inhibition Zone Diameter ([2]; strain ATCC 49503, 200 μg/disc): 2.2 cm
Inhibition Zone Diameter ([2]; strain NCTC 26695, 100 μg/disc): 2.0 cm
Inhibition Zone Diameter ([2]; strain NCTC 26695, 200 μg/disc): 2.4 cm
health and behaviour under observation ([4]; 250 mg/Kg body weight, oral route, 15 days): found to remain healthy, and no behavioral abnormality were noted
mortality ([4]; 250 mg/Kg body weight, oral route, after 24 hours): no mortality
toxic effect ([4]; single dose level up to 250 mg/kg body weight): does not show any toxic effect
solubility [5]: soluble in methanol, acetone and DMSO
MIC [6]: > 400 µg/mL
MIC [7]: > 400 µg/mL
MIC [8]: > 400 µg/mL
MIC [9]: > 400 µg/mL

Cc1ncc([N+](=O)[O-])n1CCO [Metronidazole, metronidazole]
MBC [1, 10]: 100 µg/mL (≈ 584 µM)
MIC [1, 11]: 50 µg/mL (≈ 292 µM)
MBC [1, 12]: 6.25 µg/mL (≈ 36.5 µM)
MIC [1, 13]: 1.56 µg/mL (≈ 9.11 µM)
MIC [1, 15]: 1.56 µg/mL (≈ 9.11 µM)
MBC [1, 16]: 10 µg/mL (≈ 58.4 µM)
MIC [1, 17]: 1.56 µg/mL (≈ 9.11 µM)
MBC [1, 18]: > 100 µg/mL
